The record followed here is patent publication US11225460B2, “Pyrrolidineamide derivatives and uses thereof” (SUNSHINE LAKE PHARMA CO., LTD., priority 2019, dated 2022).

The target in the assay is T1, potassium channel of hERG (Homo sapiens, UniProt Q12809).
T1 construct: expressed in transfected cells; host or cells: HEK-293 cells
Kind of assay: Inhibitory effect on potassium channel of hERG by electrophysiological manual patch clamp. To be noted: HEK-293 cells overexpressed potassium channel of hERG, 0.37-30.00 μM, read-out: IC50 acting on hERG potassium channel. Type of assay: cell-based. The procedure:
The cell line was derived from HEK-293 cells overexpressed potassium channel of hERG.
The cells were cultured in a5% CO2 incubator at 37° C. When the cell density reached 80% of the culture dish, the cells were pre-cleaned with phosphate buffer (PBS), and then digested with trypsin/EDTA for 2-3 minutes. and then the cell culture medium was added to stop digestion. The cells were blew with a pipette gently and transferred to a centrifugal tube. The cells were centrifuged for 3 minutes at 1,000 rpm. The supernatant was poured out. The cell culture medium was added and blew gently to mix the cells well. Then the cells were transferred to a culture dish for subculture, or the cells were dropped onto a circular slide and placed in a culture dish until cell adherence for experiment. […]
hERG potassium channel current was recorded by using the whole cell recording mode. Firstly, the extracellular fluid (about 2 milliliters per minute) was perfused and recorded continuously, and waiting the current stabilization (Run-Down was less than 5% in 5 minutes). […] Then the extracellular fluid containing the tested compounds was perfused (the concentration of the tested compounds were 0.37 μM, 1.10 μM, 3.30 μM, 10.00 μM and 30.00 μM, respectively) and current value was recorded continuously until the inhibitory effect of the tested compounds on hERG current reached a stable state. […]
Background: hERG is a cardiac potassium channel; its block is linked to QT prolongation.

Structures are written as SMILES.

T1 sequence (Q12809 whole entry): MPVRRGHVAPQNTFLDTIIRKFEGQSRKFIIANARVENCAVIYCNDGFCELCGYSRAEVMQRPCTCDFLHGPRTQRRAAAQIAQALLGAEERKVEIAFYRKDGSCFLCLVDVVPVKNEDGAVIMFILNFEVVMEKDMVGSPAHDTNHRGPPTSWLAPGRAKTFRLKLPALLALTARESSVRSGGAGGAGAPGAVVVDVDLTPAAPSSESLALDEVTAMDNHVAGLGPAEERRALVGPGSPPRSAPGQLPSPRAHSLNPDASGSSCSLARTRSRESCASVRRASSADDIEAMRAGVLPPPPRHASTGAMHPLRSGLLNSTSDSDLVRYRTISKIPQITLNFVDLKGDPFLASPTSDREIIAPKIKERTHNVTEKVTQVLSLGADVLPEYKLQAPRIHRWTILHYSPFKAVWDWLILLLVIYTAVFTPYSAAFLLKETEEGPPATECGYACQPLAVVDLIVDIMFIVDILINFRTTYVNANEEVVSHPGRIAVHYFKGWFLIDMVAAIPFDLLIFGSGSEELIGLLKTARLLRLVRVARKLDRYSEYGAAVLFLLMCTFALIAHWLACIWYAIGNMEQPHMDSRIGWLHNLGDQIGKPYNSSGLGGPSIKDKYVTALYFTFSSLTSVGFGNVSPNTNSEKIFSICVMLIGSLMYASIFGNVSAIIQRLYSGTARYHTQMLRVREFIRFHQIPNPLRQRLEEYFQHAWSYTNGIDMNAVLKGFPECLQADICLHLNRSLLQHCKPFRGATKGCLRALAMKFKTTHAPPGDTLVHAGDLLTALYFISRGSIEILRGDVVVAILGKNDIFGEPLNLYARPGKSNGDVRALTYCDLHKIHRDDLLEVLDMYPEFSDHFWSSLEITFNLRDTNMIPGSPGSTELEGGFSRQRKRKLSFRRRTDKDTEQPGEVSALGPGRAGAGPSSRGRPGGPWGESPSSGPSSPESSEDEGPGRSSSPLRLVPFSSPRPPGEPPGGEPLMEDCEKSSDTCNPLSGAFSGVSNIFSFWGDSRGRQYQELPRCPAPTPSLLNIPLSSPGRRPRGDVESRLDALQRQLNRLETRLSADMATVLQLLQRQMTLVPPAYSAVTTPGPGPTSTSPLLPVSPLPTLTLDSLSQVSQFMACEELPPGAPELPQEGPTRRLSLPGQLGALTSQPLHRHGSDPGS

Turning to `NC(=O)[C@@H]1C[C@H](F)CN1Cc1ccc(OCc2cccc(F)c2)cc1` [Example 1, (2S,4S)-4-fluoro-1-(4-(3-fluorobenzyloxy)benzyl)pyrrolidine-2-formamide], the IC50 is greater than 30 µM.

One may read the IC50 as the concentration that inhibits the measured activity by half.
